{
  "source": "patent US20040132049A1",
  "about": "“Method for the detection of apoptosis” (priority 2002, published 2004)",
  "key": {"[1]": {"tested_on": "nucleolin and PARP-1 proteins in U937 cells", "test": "Immunoblot of nucleolin and PARP-1 in S-100 and nuclear extracts after UV-induced apoptosis", "type": "cell-based, Human", "conditions": "UV-irradiated U937 cells, 30 minutes pre-incubation with 1 mM 3-ABA", "protocol": "The concentration of extracted proteins was determined using the BioRad DC protein assay kit (BioRad; Hercules, Calif.). […] After 3 washes in PBST, the membrane was incubated with horseradish peroxidase-conjugated goat anti-mouse antibody (Santa Cruz Biotechnology) for 45 minutes at room temperature and then washed 3 times in PBST. Bound antibodies were detected using enhanced chemiluminescence detection. Equal gel loading and transfer of proteins were confirmed by staining membranes with India ink (Bates et al., 1999).\nSome cells received 30 minutes pre-incubation with 1 mM 3-ABA before UV-irradiation."}, "[2]": {"tested_on": "nucleolin in medium of U937 cells", "test": "Immunoblot of nucleolin shed into serum-free culture medium", "type": "cell-based, Human", "procedure": "The possibility that nucleolin was shed into the cell culture medium was examined by probing serum-free medium from cultures of U937 cells irradiated with UV light in the absence or presence of 3-ABA. Cell culture and treatment conditions were as in Example 2. To prepare protein from the cell culture medium, the medium was replaced with serum-free medium, and cells were irradiated. Cells were then centrifuged at 1,200 rpm for 10 minutes. Culture medium was collected from untreated and treated cells at 2 hours and 4 hours following irradiation. The medium was filtered (syringe filters with PVDF membranes, Whatman; Clifton, N.J.), and protein present in the medium was concentrated using Centricon (YM-30, Millipore, Bedford, Mass.) according the manufacturer's instructions."}, "[3]": {"tested_on": "nucleolin and PARP-1 proteins in U937 cells", "test": "Immunoblot of nucleolin and PARP-1 in S-100 and nuclear extracts after CPT-induced apoptosis", "type": "cell-based, Human", "procedure": "Cells were harvested and washed twice with cold PBS. S-100 and nuclear extracts were prepared (Coqueret and Gascan, 2000). Briefly, 100 μl of ice-cold extraction buffer B (10 mM 4-(2-Hydroxyethyl)piperazine-1-ethanesulfonic acid (HEPES; pH 7.9), 1.5 mM MgCl2, 10 mM KCl, 1 mM phenylmethylsulfonyl fluoride (PMSF), 1 μg/ml leupeptin, 1 μg/ml aprotinin) were added to the cells. After three cycles of freeze-thaw, S-100 extracts were recovered as supernatant following centrifugation at 12,000 rpm for 1 minute, and pellets containing nuclei were resuspended in 40 μl of buffer C (20 mM HEPES, pH 7.9, 1.5 mM MgCl2, 420 mM KCl, 0.2 mM EDTA, 25% glycerol, 1 mM PMSF, 1 μg/ml leupeptin, 1 μg/ml aprotinin). Following 30 minutes incubation at 4° C., insoluble material was removed by centrifugation at 12,000 rpm for 5 minutes, and nuclear extracts were collected as supernatant. Extracts were either used immediately or frozen and stored at −80° C.\nThe concentration of extracted proteins was determined using the BioRad DC protein assay kit (BioRad; Hercules, Calif.). Samples (10 μg) were incubated in sodium dodecyl sulfate (SDS)-loading buffer (100 mM Tris-HCl, pH 6.8, 200 mM dithiothreitol (DTT), 4% SDS, 0.2% bromophenol blue, 20% glycerol) at 65° C. for 15 minutes, and separated on 10% (for nucleolin detection) or 8% (for PARP-1) polyacrylamide-SDS gels, followed by electroblotting to polyvinylidene difluoride membranes (PVDF, BioRad). After blocking non-specific binding sites for 1 hour in 5% nonfat dried milk in PBST (0.1% polyoxyethylene(20) sorbitan monolaurate (Tween® 20) in PBS), the membrane was incubated for 1 hour at room temperature or overnight at 4° C. with primary antibody (1:1000 anti-nucleolin or anti-PARP-1; Anti-nucleolin antibody (mouse monoclonal IgG1) and anti-PARP-1 antibody (mouse monoclonal IgG2A) were from Santa Cruz Biotechnology; Santa Cruz; Calif.). After 3 washes in PBST, the membrane was incubated with horseradish peroxidase-conjugated goat anti-mouse antibody (Santa Cruz Biotechnology) for 45 minutes at room temperature and then washed 3 times in PBST. Bound antibodies were detected using enhanced chemiluminescence detection. Equal gel loading and transfer of proteins were confirmed by staining membranes with India ink (Bates et al., 1999).\nTo determine if the phenomena observed in Example 2 were specific to UV-irradiated cells or a general feature of apoptosis, protein changes in U937 cells treated with 10 μM CPT (prepared as in Example 1) for 24 hours were also examined. The U937 cells were cultured as in Example 2. Apoptosis-induced changes in nucleolin and PARP-1 were examined as in Example 2."}, "U937 cells [4]": {"tested_on": "U937 cells", "test": "MTT viable cell assay after UV irradiation", "type": "cell-based, Human", "conditions": "1 mM 3-ABA pre-treatment, MTT 48 hours after irradiation", "procedure": "Because PARP-1 is involved in both repair of DNA damage and induction of apoptosis, 3-ABA can both increase apoptotic cell death (by preventing repair) or decrease it (by preventing PARP-1 cleavage), depending on conditions. Therefore, the ability of 3-ABA to inhibit cell death under the conditions used here was examined. Cells were subjected to UV irradiation with or without 1 mM 3-ABA pre-treatment. Untreated and irradiated cells were plated at 2×10^4/ml in a 96-well plate. Viable cells were assessed using the MTT (3-[4,5-dimethylthiazol-2-yl]-2,5-diphenyl tetrazolium bromide) assay (Norgaard et al., 2001) 48 hours after irradiation."}, "U937 cells [5]": {"tested_on": "U937 cells", "test": "DNA fragmentation (DNA ladder) assay of apoptosis", "type": "cell-based, Human", "conditions": "10 μM CPT", "procedure": "Camptothecin (CPT; Sigma Co.; St. Louis, Mo.), an anti-neoplastic topo-isomerase I (Top I) inhibitor, was dissolved in 0.5% (v/v) dimethyl sulfoxide (DMSO)/PBS as stock solutions (stored at −20° C.) and further diluted with water before use. Human U937 cells (myeloid leukemia cell line, from American Type Culture Collection (ATCC); Manassas, Va.) were grown in suspension in RPMI 1640 medium supplemented with 10% heat-inactivated (20 minutes at 65° C.) fetal bovine serum (FBS), 100 U/ml penicillin, 100 μg/ml streptomycin at 37° C. with 5% CO2. For treatment with CPT, exponentially growing U937 cells were treated with 10 μM CPT for 24 hours. For UV irradiation, cells were plated at 5×10^5 cells/ml in dishes (60 mm diameter). The cells were irradiated with UV-light by placing the plate (without a lid) directly in a Stratagene (La Jolla) UV Stratalinker and irradiating for 30 seconds at 254 nm. Some cells received 30 minutes pre-incubation with 1 mM 3-aminobenzamide (ABA); Sigma). Cells were then replaced in the incubator at 37° C. for various times. Apoptosis was observed using a DNA fragmentation assay (Facompre et al., 2001). In this assay, apoptosis is indicated by the appearance of a DNA “ladder”, which is produced by endonuclease cleavage of chromosomal DNA into nucleosomal fragments."}, "nucleolin in U937 cells": {"tested_on": "nucleolin in U937 cells", "test": "Immunofluorescence staining of nucleolin in cells", "type": "cell-based, Human", "procedure": "Cells were collected by centrifugation, washed twice with PBS, and placed on glass slides using a cytospinner. Samples were fixed in 4% paraformaldehyde in PBS for 15 minutes at room temperature and then permeabilized with 0.2% Triton X-100 in PBS for 10 minutes. After two washes with PBS, nonspecific antibody binding sites were blocked by 1 hour incubation at room temperature with 5% normal goat serum in PBS. After 3 washes with PBS, slides were incubated in primary antibody (1:100 anti-mAb IgG1; Santa Cruz Biotechnology) for 1 hour at room temperature then washed 3 times in PBS. Samples were incubated with Alexa-488-labeled secondary antibodies (diluted 1:500 in blocking buffer) for 1 hour at room temperature. Slides were washed 3 times in PBS, were observed using an Olympus BX60F fluorescence microscope and photographed using an Olympus DPIO camera.\nUntreated, UV-irradiated, and 10 μM CPT-treated U937 cells were examined using the above staining method. Culture and treatment conditions were as in Example 2. […] Moreover, there was a dramatic redistribution of nucleolin in the apoptotic nuclei. In untreated cells, nucleolin was predominantly located in the intensely stained nucleoli (FIG. 1, panels A and D), whereas 24 hours after UV irradiation, nucleolin was distributed throughout the nucleolplasm in a speckled pattern (FIG. 1, panels B and E). […]"}, "[6]": {"biological_target": "plasma membrane nucleolin (Homo sapiens, UniProt P19338)", "sequence (P19338 whole entry)": "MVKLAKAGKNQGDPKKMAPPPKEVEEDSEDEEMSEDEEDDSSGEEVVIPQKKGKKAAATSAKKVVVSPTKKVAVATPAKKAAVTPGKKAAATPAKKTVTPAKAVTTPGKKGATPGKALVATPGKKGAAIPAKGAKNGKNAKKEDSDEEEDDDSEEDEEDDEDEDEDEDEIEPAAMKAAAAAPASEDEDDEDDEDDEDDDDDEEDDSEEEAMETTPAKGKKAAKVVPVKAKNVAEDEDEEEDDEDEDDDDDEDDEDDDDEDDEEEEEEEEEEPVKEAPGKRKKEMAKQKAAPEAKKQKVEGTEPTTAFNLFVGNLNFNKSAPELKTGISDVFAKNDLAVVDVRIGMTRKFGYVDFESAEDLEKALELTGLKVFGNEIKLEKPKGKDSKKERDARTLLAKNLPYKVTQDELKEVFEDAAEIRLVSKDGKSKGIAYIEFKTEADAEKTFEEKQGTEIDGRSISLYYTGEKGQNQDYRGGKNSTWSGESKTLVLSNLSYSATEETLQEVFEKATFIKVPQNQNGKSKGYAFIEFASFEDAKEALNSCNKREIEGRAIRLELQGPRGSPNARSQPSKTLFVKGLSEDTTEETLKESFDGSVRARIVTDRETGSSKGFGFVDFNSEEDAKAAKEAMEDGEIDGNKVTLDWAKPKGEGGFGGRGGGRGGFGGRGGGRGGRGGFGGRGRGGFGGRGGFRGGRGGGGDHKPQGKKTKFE", "design": "key: 1: Indicates a good plasma membrane nucleolin-binding GRO.; 2: Indicates a nucleolin control (non-plasma membrane nucleolin binding)", "conditions": "superscript on GRO name in Table 2; cited from earlier work"}, "[7]": {"conditions": "U937 cells, 10 μM CPT for 24 hours"}},
  "data": [
    {"compound": "NC(=O)c1cccc(N)c1", "note": "[3-ABA, 3-aminobenzamide]", "values": [
      {"measurement": "PARP-1 cleavage", "setting": "[1]", "result": "abrogation of PARP-1 cleavage"},
      {"measurement": "disappearance of S-100 nucleolin", "setting": "[1]", "result": "drastically inhibited the disappearance of S-100 nucleolin"},
      {"measurement": "loss of nuclear nucleolin", "setting": "[1]", "result": "prevented the loss of nuclear nucleolin"},
      {"measurement": "nucleolin in medium of untreated (non-irradiated) cells", "setting": "[2]; U937 cells without UV irradiation, with 3-ABA treatment", "result": "almost no nucleolin was detected"},
      {"measurement": "appearance of full-length nucleolin band in medium after UV irradiation", "setting": "[2]; UV-irradiated U937 cells, serum-free medium, with 3-ABA", "result": "inhibited"},
      {"measurement": "protection from apoptosis-induced changes in nucleolin and PARP-1", "setting": "[3]; CPT-treated U937 cells, pre-incubation with 3-ABA", "result": "only a small degree of protection"},
      {"measurement": "reduction of UV-induced cell death", "setting": "U937 cells [4]", "result": "only to a small degree"}
    ]},
    {"compound": "CC[C@@]1(O)C(=O)OCc2c1cc1n(c2=O)Cc2cc3ccccc3nc2-1", "note": "[CPT, Camptothecin]", "values": [
      {"measurement": "induction of apoptosis (DNA ladder)", "setting": "U937 cells [5]", "result": "induced apoptosis"},
      {"measurement": "time at which DNA ladder clearly observed", "setting": "U937 cells [5]", "result": 24, "unit": "h"},
      {"measurement": "distribution of nucleolin in nuclei", "setting": "nucleolin in U937 cells; U937 cells treated with CPT for 24 hours", "result": "the majority of nuclei exhibited a distinct pattern of staining"},
      {"measurement": "overall intensity of nuclear nucleolin staining", "setting": "nucleolin in U937 cells; U937 cells, 10 μM CPT", "result": "decreased slightly"},
      {"measurement": "nuclear nucleolin", "setting": "[3]; [7]", "result": "reduced the amount of nuclear nucleolin"},
      {"measurement": "nucleolin in S-100 fraction", "setting": "[3]; [7]", "result": "caused a disappearance of nucleolin from the S-100 fraction"},
      {"measurement": "PARP-1 cleavage", "setting": "[3]; U937 cells, 10 μM CPT, after 4 hours", "result": "only partial cleavage"}
    ]},
    {"compound": "CRO: SEQ ID NO:18 tttcctcctc ctccttctcc tcctcctcc; nucleolin control (DNA TTTCCTCCTCCTCCTTCTCCTCCTCCTCC; listed as DNA, chemistry not given here)", "values": [
      {"measurement": "plasma membrane nucleolin binding designation", "setting": "[6]", "result": "CRO^2"}
    ]},
    {"compound": "GRO15B: SEQ ID NO:8 ttgggggggg tgggt (TTGGGGGGGGTGGGT; listed as DNA, chemistry not given here)", "values": [
      {"measurement": "plasma membrane nucleolin binding designation", "setting": "[6]", "result": "GRO15B^2"}
    ]},
    {"compound": "GRO26B: SEQ ID NO:10 ggtggtggtg gttgtggtgg tggtgg", "values": [
      {"measurement": "plasma membrane nucleolin binding designation", "setting": "[6]", "result": "GRO26B^1"}
    ]},
    {"compound": "GRO G: SEQ ID NO:25 ggttggtgtg gttgg", "values": [
      {"measurement": "plasma membrane nucleolin binding designation", "setting": "[6]", "result": "GRO G^1"}
    ]},
    {"compound": "GRO H: SEQ ID NO:26 ggggttttgg gg (DNA GGGGTTTTGGGG; listed as DNA, chemistry not given here)", "values": [
      {"measurement": "plasma membrane nucleolin binding designation", "setting": "[6]", "result": "GRO H^1"}
    ]},
    {"compound": "GRO I: SEQ ID NO:27 gggttttggg (DNA GGGTTTTGGG; listed as DNA, chemistry not given here)", "values": [
      {"measurement": "plasma membrane nucleolin binding designation", "setting": "[6]", "result": "GRO I^1"}
    ]},
    {"compound": "GRO J: SEQ ID NO:28 ggggttttgg ggttttgggg ttttgggg (DNA GGGGTTTTGGGGTTTTGGGGTTTTGGGG; listed as DNA, chemistry not given here)", "values": [
      {"measurement": "plasma membrane nucleolin binding designation", "setting": "[6]", "result": "GRO J^1"}
    ]},
    {"compound": "GRO K: SEQ ID NO:29 ttggggttgg ggttggggtt gggg (DNA TTGGGGTTGGGGTTGGGGTTGGGG; listed as DNA, chemistry not given here)", "values": [
      {"measurement": "plasma membrane nucleolin binding designation", "setting": "[6]", "result": "GRO K^1"}
    ]},
    {"compound": "GRO M: SEQ ID NO:31 ggttttggtt ttggttttgg ttttgg (DNA GGTTTTGGTTTTGGTTTTGGTTTTGG; listed as DNA, chemistry not given here)", "values": [
      {"measurement": "plasma membrane nucleolin binding designation", "setting": "[6]", "result": "GRO M^1"}
    ]},
    {"compound": "GRO N: SEQ ID NO:32 tttcctcctc ctccttctcc tcctcctcc; nucleolin control (DNA TTTCCTCCTCCTCCTTCTCCTCCTCCTCC; listed as DNA, chemistry not given here)", "values": [
      {"measurement": "plasma membrane nucleolin binding designation", "setting": "[6]", "result": "GRO N^2"}
    ]},
    {"compound": "GRO O: SEQ ID NO:33 cctcctcctc cttctcctcc tcctcc; nucleolin control (DNA CCTCCTCCTCCTTCTCCTCCTCCTCC; listed as DNA, chemistry not given here)", "values": [
      {"measurement": "plasma membrane nucleolin binding designation", "setting": "[6]", "result": "GRO O^2"}
    ]},
    {"compound": "GRO P: SEQ ID NO:34 tggggt; nucleolin control", "values": [
      {"measurement": "plasma membrane nucleolin binding designation", "setting": "[6]", "result": "GRO P^2"}
    ]},
    {"compound": "GRO Q: SEQ ID NO:35 gcatgct; nucleolin control (DNA GCATGCT; listed as DNA, chemistry not given here)", "values": [
      {"measurement": "plasma membrane nucleolin binding designation", "setting": "[6]", "result": "GRO Q^2"}
    ]},
    {"compound": "GRO R: SEQ ID NO:36 gcggtttgcg g; nucleolin control (DNA GCGGTTTGCGG; listed as DNA, chemistry not given here)", "values": [
      {"measurement": "plasma membrane nucleolin binding designation", "setting": "[6]", "result": "GRO R^2"}
    ]},
    {"compound": "GRO S: SEQ ID NO:37 tagg; nucleolin control (DNA TAGG; listed as DNA, chemistry not given here)", "values": [
      {"measurement": "plasma membrane nucleolin binding designation", "setting": "[6]", "result": "GRO S^2"}
    ]}
  ]
}
